The values that follow come from ChEMBL document CHEMBL1158265, “Isoprenyl phenyl ethers from liverworts of the genus Trichocolea: cytotoxic activity, structural corrections, and synthesis” (J Nat Prod, 1996).

Structures are written as SMILES.

Data set [1] can be described thus: Cytotoxicity against african green monkey BSC1 cells at 60 ug/disk. Type of data set: cell-based. The following applies: chlorocebus aethiops, bsc-1.
The subject of data set [2] is Candida albicans. Briefly: Antifungal activity against Candida albicans at 60 ug/disk. Type of data set: functional. The following applies: read-out: IZ.
Data set [3] relates to Trichophyton mentagrophytes. In words: Antifungal activity against Trichophyton mentagrophytes at 60 ug/disk. The following applies: read-out: IZ. The data set is classed as functional.

Turning to `COC(=O)c1ccc(OCC=C(C)C)c(OC)c1`, in data set [1], the Activity was 50%. Further, the zone of inhibition at 60 µg/disc in data set [2] was found to be 1 mm; in data set [3], 2 mm.
`COC(=O)c1ccc(O)c(OC)c1` [METHYL VANILLATE]: in data set [1], the Activity is given as 25%. The zone of inhibition at 60 µg/disc in data set [2] and in data set [3] was 0 mm in each case.
